Experimental findings from ChEMBL document CHEMBL1139965, “Synthesis and antifungal activities of new fluconazole analogues with azaheterocycle moiety” (2007) are described below.

≈ marks a conversion by molar mass, not a printed value.

In one assay the test system is Aspergillus fumigatus. The experiment in a line: Antifungal activity against Aspergillus fumigatus AF980003 by alamar blue assay. It counts as functional.
For a further assay, the system named is Candida albicans. Kind of assay: Antifungal activity against Candida albicans CA980001 by alamar blue assay. The format is functional.

Turning to `O[C@@](Cn1cncn1)(Cn1cnc2ccccc21)c1ccc(F)cc1F`, the MIC was greater than 100 µg/mL in the assay on Aspergillus fumigatus and 0.233 µg/mL (≈ 0.656 µM) in the assay with Candida albicans.

`O[C@@](Cn1cncn1)(Cn1ncc2ccccc21)c1ccc(Cl)cc1Cl`: the minimal inhibitory concentration (MIC) in the assay with Aspergillus fumigatus is greater than 100 µg/mL; against Candida albicans, 0.0007 µg/mL (≈ 0.0018 µM).

For `CCOC(=O)Cc1cn(C[C@@](O)(Cn2cncn2)c2ccc(Cl)cc2Cl)c2ccccc12`, the minimum inhibitory concentration (MIC) against Aspergillus fumigatus was greater than 100 µg/mL; in the assay with Candida albicans, 0.006 µg/mL (≈ 0.0127 µM).

Take `O[C@@](Cn1cncn1)(Cn1nnc2ccccc21)c1ccc(F)cc1F`: the values for the minimum inhibitory concentration (MIC) in the assay with Aspergillus fumigatus and in the assay on Candida albicans were greater than 100 µg/mL and 0.025 µg/mL (≈ 0.0702 µM), respectively.

For the molecule `O[C@@](Cn1cncn1)(Cn1ccc2cccnc21)c1ccc(F)cc1F`, the MIC in the assay with Aspergillus fumigatus came to 21 µg/mL (≈ 59.1 µM); with Candida albicans, 0.007 µg/mL (≈ 0.0197 µM).

For `O[C@@](Cn1cncn1)(Cn1ncc2ccccc21)c1ccc(F)cc1F`, the minimum inhibitory concentration (MIC) came out at 24 µg/mL (≈ 67.5 µM) against Aspergillus fumigatus and 0.019 µg/mL (≈ 0.0535 µM) with Candida albicans.

For `O[C@](CN1CCc2ccccc21)(Cn1cncn1)c1ccc(Cl)cc1Cl`, the minimum inhibitory concentration (MIC) is greater than 100 µg/mL with Aspergillus fumigatus and 2.72 µg/mL (≈ 6.99 µM) against Candida albicans.

As for `O[C@](CNc1ccc2[nH]ccc2c1)(Cn1cncn1)c1ccc(Cl)cc1Cl`, the minimal inhibitory concentration (MIC) was greater than 100 µg/mL against Aspergillus fumigatus and 0.026 µg/mL (≈ 0.0646 µM) with Candida albicans.

Regarding `O[C@@](Cn1cncn1)(Cn1cnc2ccccc21)c1ccc(Cl)cc1Cl`, the MIC against Aspergillus fumigatus is greater than 100 µg/mL; with Candida albicans it was 0.026 µg/mL (≈ 0.067 µM).

In the case of `CCOC(=O)CCc1cn(C[C@@](O)(Cn2cncn2)c2ccc(Cl)cc2Cl)c2ccccc12`, the minimal inhibitory concentration (MIC) against Aspergillus fumigatus was greater than 100 µg/mL; in the assay on Candida albicans, 0.33 µg/mL (≈ 0.677 µM).

Regarding `O[C@@](Cn1cncn1)(Cn1ccc2cccnc21)c1ccc(Cl)cc1Cl`, the MIC worked out at 29 µg/mL (≈ 74.7 µM) in the assay on Aspergillus fumigatus and 0.0031 µg/mL (≈ 0.00798 µM) against Candida albicans.

As to `OC(Cn1cncn1)(Cn1nc2ccccc2n1)c1ccc(F)cc1F` (stereo unspecified), the figures for the minimal inhibitory concentration (MIC) in the assay on Aspergillus fumigatus and against Candida albicans were greater than 100 µg/mL and greater than 0.036 µg/mL, respectively.

On to `C[C@@H]1[C@H](O)[C@@H](C)/C=C/C=C/C=C/C=C/C=C/C=C/C=C/[C@H](O[C@@H]2O[C@H](C)[C@@H](O)[C@H](N)[C@@H]2O)C[C@@H]2O[C@](O)(C[C@@H](O)C[C@@H](O)[C@H](O)CC[C@@H](O)C[C@@H](O)CC(=O)O[C@H]1C)C[C@H](O)[C@H]2C(=O)O` [AMPHOTERICIN B], for which the MIC was determined as 0.14 µg/mL (≈ 0.152 µM) in the assay with Aspergillus fumigatus and 0.12 µg/mL (≈ 0.13 µM) in the assay with Candida albicans.

Regarding `O=Cc1cn(C[C@@](O)(Cn2cncn2)c2ccc(Cl)cc2Cl)c2ccccc12`, the MIC with Aspergillus fumigatus was greater than 100 µg/mL; with Candida albicans, 0.045 µg/mL (≈ 0.108 µM).

As to `O=C1CCCc2c1ccn2C[C@@](O)(Cn1cncn1)c1ccc(Cl)cc1Cl`, the figures for the minimal inhibitory concentration (MIC) in the assay on Aspergillus fumigatus and against Candida albicans were greater than 100 µg/mL and 0.07 µg/mL (≈ 0.173 µM), respectively.

In the case of `O[C@@](Cn1cncn1)(Cn1nnc2ccccc21)c1ccc(Cl)cc1Cl`, the results for the MIC with Aspergillus fumigatus and against Candida albicans were greater than 100 µg/mL and 0.02 µg/mL (≈ 0.0514 µM), respectively.

For `OC(Cn1cncn1)(Cn1nc2ccccc2n1)c1ccc(Cl)cc1Cl` (stereo unspecified), the MIC was greater than 100 µg/mL in the assay on Aspergillus fumigatus and 0.01 µg/mL (≈ 0.0257 µM) against Candida albicans.

With `CCC(C)n1ncn(-c2ccc(N3CCN(c4ccc(OCC5COC(Cn6cncn6)(c6ccc(Cl)cc6Cl)O5)cc4)CC3)cc2)c1=O` (stereo unspecified) [ITRACONAZOLE], the minimal inhibitory concentration (MIC) against Aspergillus fumigatus was found to be 0.5 µg/mL (≈ 0.709 µM).

Molecule `OC(Cn1cncn1)(Cn1cncn1)c1ccc(F)cc1F` [FLUCONAZOLE] showed a minimal inhibitory concentration (MIC) in the assay on Candida albicans of 0.02 µg/mL (≈ 0.0653 µM).

Broadly, the MIC is the lowest concentration found to suppress growth. Lower therefore signals greater potency.
